Source: ChEMBL document CHEMBL1201862, “PubChem BioAssay data set” (2004)
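These data come from cells grown in 96-well plates and exposed to compound for 48 hours at five concentrations. GI50 is the concentration that inhibits growth by half.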 The source made the active and inactive calls. Cut-off read from the data, not from the text of the source: active = GI50 up to about 1.1 µM and inactive = higher.

Columns and labels:
Experiment in all cases: inhibition of tumour cell growth, NCI panel, 48 h
[1] = tested on: A549
[2] = tested on: CCRF-CEM
[3] = tested on: COLO 205
[4] = tested on: EKVX
[5] = tested on: HCC 2998
[6] = tested on: HCT-116
[7] = tested on: HCT-15
[8] = tested on: HOP-62
[9] = tested on: HT-29
[10] = tested on: K562
[11] = tested on: NCI-H23
[12] = tested on: OVCAR-4
[13] = tested on: SF-539
[14] = tested on: SK-MEL-2
[15] = tested on: SNB-75
[16] = tested on: UACC-257
[17] = tested on: CAKI-1
[18] = tested on: HL-60
[19] = tested on: SR

Measured: GI50

CC1(C)CCCC2(C)C3C(O)CC2(C)C(O)C31 (configuration not stated)
inactive: [1] > 100 µM | [2] > 100 µM | [3] > 100 µM | [4] > 100 µM | [5] > 100 µM | [6] > 100 µM | [8] > 100 µM | [9] > 100 µM | [10] > 100 µM | [11] > 100 µM | [12] > 100 µM | [13] > 100 µM | [14] > 100 µM | [15] > 100 µM | [16] > 100 µM
> 100 µM: [7]

O=C(O)C12C3CCC(O3)C1(C(=O)O)C1CCC2O1 (configuration not stated)
inactive: [1] > 100 µM | [17] > 100 µM | [2] > 100 µM | [3] > 100 µM | [5] > 100 µM | [6] > 100 µM | [18] > 100 µM | [8] > 100 µM | [9] > 100 µM | [10] > 100 µM | [11] > 100 µM | [13] > 100 µM | [14] > 100 µM | [15] > 100 µM | [16] > 100 µM
> 100 µM: [7]

O=C(Nc1cc(Cl)c(Cl)cc1Cl)C(=O)C(C(=O)c1ccc(Cl)c(Cl)c1)C1OC(=O)c2ccccc21 (configuration not stated)
19.6 µM: [7]
inactive: [1] 28.7 µM | [17] 16.1 µM | [2] 5.35 µM | [3] 15 µM | [4] 19.6 µM | [5] 18.8 µM | [6] 15.1 µM | [18] 18 µM | [8] 12.6 µM | [9] 18.5 µM | [10] 4.2 µM | [11] > 10 µM | [12] 22.9 µM | [13] 2.67 µM | [14] 14 µM | [19] 4.39 µM | [16] 13.9 µM

N#C/C(=C1\OC(=N)C(c2ccccc2)C1=O)c1ccccc1 (configuration not stated)
inactive: [1] > 100 µM | [17] 30.6 µM | [2] 15.9 µM | [3] 22.6 µM | [4] 36.5 µM | [5] 90.2 µM | [6] 17.6 µM | [18] 23.4 µM | [8] > 100 µM | [9] 22.5 µM | [10] 22.6 µM | [11] > 10 µM | [12] 40.1 µM | [13] > 31.6 µM | [14] > 52.2 µM | [15] 28.3 µM | [16] 23 µM
22.1 µM: [7]

N#C/C(=C/c1ccc2c(c1)OCO2)C(=O)c1ccccc1
> 100 µM: [7]
inactive: [1] > 100 µM | [17] > 100 µM | [2] > 100 µM | [3] > 100 µM | [4] > 100 µM | [5] > 100 µM | [6] > 100 µM | [8] > 100 µM | [9] > 100 µM | [10] > 100 µM | [11] > 100 µM | [12] > 100 µM | [13] > 100 µM | [14] > 100 µM | [15] > 100 µM | [16] > 100 µM

COC(=O)C1CCCC2(C1)OCCO2 (configuration not stated)
> 100 µM: [7]
inactive: [1] > 100 µM | [17] > 100 µM | [2] > 100 µM | [3] > 100 µM | [4] > 100 µM | [5] > 100 µM | [6] > 100 µM | [8] > 100 µM | [9] > 100 µM | [10] > 100 µM | [11] > 100 µM | [12] > 100 µM | [13] > 100 µM | [14] > 100 µM | [15] > 100 µM | [19] > 100 µM | [16] > 100 µM

Cc1ccc(S(=O)(=O)N/N=C(/CC(=O)c2c(C)[n+]([O-])c3ccccc3[n+]2[O-])C(=O)Nc2ccc(C)c(C)c2)cc1
48.6 µM: [7]
inactive: [1] > 100 µM | [17] > 100 µM | [3] 34.7 µM | [4] > 100 µM | [5] 90.4 µM | [6] 38.2 µM | [8] > 100 µM | [9] 50.9 µM | [11] > 100 µM | [12] 33 µM | [13] > 100 µM | [14] > 100 µM | [15] > 100 µM | [16] 87.1 µM

O=C1c2ccccc2C2(O)N(c3ccccc3)C(=S)N(c3ccccc3)C12O (configuration not stated)
inactive: [1] > 100 µM | [17] > 100 µM | [2] > 100 µM | [3] > 100 µM | [4] > 100 µM | [5] > 100 µM | [6] > 100 µM | [8] > 100 µM | [9] > 100 µM | [10] > 100 µM | [11] > 100 µM | [12] > 100 µM | [13] > 100 µM | [14] > 100 µM | [15] > 100 µM | [16] > 100 µM
> 100 µM: [7]

Cc1ccccc1/C=C/C(=O)c1ccccc1
> 10 µM: [7]
inactive: [1] 22.5 µM | [17] 19.4 µM | [2] 29.6 µM | [3] 21.4 µM | [4] 17.5 µM | [5] 18.4 µM | [6] 15.4 µM | [8] 16.7 µM | [9] 20.1 µM | [10] 20.6 µM | [11] 17.6 µM | [12] 13.3 µM | [13] 15.1 µM | [14] > 10 µM | [15] 19.5 µM | [19] 29 µM | [16] 22.5 µM

COc1ccccc1NC(=O)C1=C(C)NC(C)=C(C(=O)Nc2ccccc2OC)C1C1=CC=COC1
inactive: [1] 18.5 µM | [17] 4.65 µM | [2] 7.87 µM | [3] 57 µM | [4] 10.8 µM | [5] 12.3 µM | [6] 4.53 µM | [18] 3.94 µM | [8] 27.5 µM | [9] 4.46 µM | [10] 3.78 µM | [11] 23.9 µM | [12] 30.5 µM | [13] 12.2 µM | [15] 23 µM | [16] 13.6 µM
4.59 µM: [7]

COC1CC(O)C(OC(=O)c2ccccc2)C(C)O1 (configuration not stated)
> 100 µM: [7]
inactive: [1] > 100 µM | [17] > 100 µM | [2] > 100 µM | [3] > 100 µM | [5] > 100 µM | [6] > 100 µM | [18] > 100 µM | [8] > 100 µM | [9] > 100 µM | [10] > 100 µM | [11] > 100 µM | [12] > 100 µM | [13] > 100 µM | [19] > 100 µM | [16] > 10 µM

CC1(c2cccc(C3CC4(CCC3=O)OCCCCO4)c2)OCCO1 (configuration not stated)
inactive: [1] > 100 µM | [17] > 100 µM | [2] > 100 µM | [3] > 100 µM | [5] > 100 µM | [6] > 100 µM | [18] > 100 µM | [8] > 100 µM | [9] > 100 µM | [10] > 100 µM | [11] > 100 µM | [12] > 100 µM | [13] > 100 µM | [14] > 100 µM | [15] 92.7 µM | [16] > 100 µM
> 100 µM: [7]

CCc1c(OC(C)=O)c2c(NC3OCC(OC(C)=O)C(OC(C)=O)C3OC(C)=O)nc(SC)nc2oc1=O (configuration not stated)
inactive: [1] > 100 µM | [17] > 100 µM | [2] > 100 µM | [3] > 100 µM | [4] > 100 µM | [5] > 100 µM | [6] > 100 µM | [18] > 100 µM | [8] > 100 µM | [9] > 100 µM | [10] > 100 µM | [11] > 100 µM | [12] > 100 µM | [13] > 100 µM | [14] > 100 µM | [15] > 100 µM | [16] > 100 µM
> 100 µM: [7]

COc1ccc(OC)c2cc(C3(C)SCCCS3)ccc12
inactive: [1] > 100 µM | [17] 61 µM | [2] 71 µM | [3] > 100 µM | [4] > 100 µM | [5] > 100 µM | [6] 83.4 µM | [18] 59.3 µM | [8] > 100 µM | [9] 40.4 µM | [10] 53.5 µM | [11] 84.3 µM | [12] 60.3 µM | [13] > 100 µM | [14] > 100 µM | [15] 56.6 µM | [16] > 100 µM
88.1 µM: [7]

COc1ncn(C2C=C(CO)C(O)C2O)c(=O)n1 (configuration not stated)
inactive: [1] > 100 µM | [3] > 100 µM | [4] > 100 µM | [5] > 100 µM | [6] > 100 µM | [18] > 100 µM | [8] > 100 µM | [10] > 100 µM | [12] > 100 µM | [13] > 100 µM | [14] > 100 µM | [15] > 100 µM | [16] > 100 µM
> 100 µM: [7]
active: [17] < 0.01 µM

CCN(CC)CCCNC(=O)c1ccc([N+](=O)[O-])cc1O
inactive: [1] > 100 µM | [17] > 100 µM | [2] > 100 µM | [3] > 100 µM | [4] > 100 µM | [5] > 100 µM | [18] > 100 µM | [8] > 100 µM | [9] > 100 µM | [10] > 100 µM | [11] > 100 µM | [12] > 100 µM | [13] > 100 µM | [14] > 100 µM | [15] > 100 µM | [16] > 100 µM
> 100 µM: [7]

O=C(N/N=C/c1cccc(F)c1)c1ccncc1
inactive: [1] > 100 µM | [17] > 10 µM | [2] > 100 µM | [3] > 100 µM | [5] > 100 µM | [6] > 100 µM | [18] > 100 µM | [8] > 100 µM | [9] > 100 µM | [11] > 100 µM | [12] > 10 µM | [14] > 100 µM | [15] > 100 µM | [19] > 100 µM | [16] > 100 µM
> 100 µM: [7]
